The values below come from patent US4456604A, “1-(3-Halo-2-pyridinyl) piperazine” (Merck & Co., Inc., priority 1982, dated 1984).

The term Ki denotes a measure of affinity in units of concentration, obtained from inhibition or displacement.

For test [1], the target named is α1-adrenergic receptor. The test can be described thus: α1-adrenergic receptor binding ([3H] prazosin binding site, calf cerebral cortex). To be noted: for Ki: [3H] prazosin binding site, calf cerebral cortex; for affinity for the α1-adrenergic receptors (in words): of the compounds tested. The method, then: (§1) The α1 - and α2 -adrenergic receptor binding was determined for 1-(3-halo-2-pyridinyl)piperazines and a number of other structurally related compounds shown in Table I.
Extent of binding to the α1 -adrenergic receptor was determined by the method of Greengrass and Bremner, Eur. J. Pharmacol., 55, 323 (1979) and is expressed in Table I as Ki, representing the affinity of each compound for the [^3 H] prazosin binding site in calf cerebral cortex.

Test [2] has as its target T1, α2-adrenergic receptor (Bos taurus, UniProt Q28838).
T1 construct: from tissue; host or cells: calf cerebral cortex
T1 sequence (Q28838 1-468): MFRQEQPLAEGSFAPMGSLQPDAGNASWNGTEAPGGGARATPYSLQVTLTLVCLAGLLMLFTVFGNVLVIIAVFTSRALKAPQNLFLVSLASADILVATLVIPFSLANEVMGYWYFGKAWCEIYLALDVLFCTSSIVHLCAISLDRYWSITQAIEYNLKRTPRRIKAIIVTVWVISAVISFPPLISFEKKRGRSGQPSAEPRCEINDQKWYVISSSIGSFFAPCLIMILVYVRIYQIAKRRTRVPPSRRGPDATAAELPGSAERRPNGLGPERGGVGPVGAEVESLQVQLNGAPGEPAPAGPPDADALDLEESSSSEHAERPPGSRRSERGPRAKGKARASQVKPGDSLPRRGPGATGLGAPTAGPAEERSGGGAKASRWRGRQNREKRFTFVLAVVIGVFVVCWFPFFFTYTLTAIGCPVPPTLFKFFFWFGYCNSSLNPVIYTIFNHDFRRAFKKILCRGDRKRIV
The test can be described thus: α2-adrenergic receptor binding ([3H] clonidine binding site, calf cerebral cortex). To be noted: for affinity for the α2-adrenergic receptors (in words): of the compounds tested, with the exception of compound 5. The method, then: as §1
(§2) Binding to the α2 -adrenergic receptor was determined by the method of Lyon and Randall, Life Sciences, 26, 1121 (1980) and also is expressed in Table I as Ki representing the affinity of each compound for the [^3 H] clonidine binding site in calf cerebral cortex.

Test [3] concerns α2-adrenergic receptor. Described as above. To be noted: compared to any of the other tested compounds. The method, then:
as §1, §2

Test [4] has as its system norepinephrine reuptake. The conditions noted are these: cited from earlier work.
The subject of test [5] is α2-adrenergic receptors. To be noted: cited from earlier work.
For test [6], the system named is α1- or α2-adrenergic receptors. To be noted: Clineschmidt et al. 1979; cited from earlier work.
The subject of test [7] is depression. The conditions noted are these: in vivo; cited from earlier work.
In test [8] the test system is sedation produced by clonidine. To be noted: Drew et al. 1979; cited from earlier work.
In test [9] the test system is clonidine-induced sedation. The conditions noted are these: man; Autret et al. 1977; cited from earlier work.
Test [10] deals with locomotor depressant effects of methyldopa. To be noted: rats; Clineschmidt et al. 1980; cited from earlier work.
Setting [11] is: [3H] clonidine binding site, calf cerebral cortex, read-out: Adrenergic Binding Ki α2.

SMILES strings stand for the structures. Read-outs that look alike come from different tables or passages of the source.

As for `Ic1cccnc1N1CCNCC1` [Compound 4], the values for the Ki in [1] and in test [2] (setting [11]) were 1600 nM and 42 nM, respectively.
With `Brc1cccnc1N1CCNCC1` [Compound 3, 1-(3-bromo-2-pyridinyl)piperazine], in [1], the Ki was found to be 1480 nM and the “affinity for the α1-adrenergic receptors (in words)” value is reported as “weakest affinity (highest Ki)”. Further, the “selectivity or ratio of Kiα1/Kiα2 (in words)” value (“selectivity or ratio” below) in [3] was “greatest selectivity”. Moreover, the Ki in test [2] (setting [11]) turned out to be 11 nM. Moreover, the “affinity for the α2-adrenergic receptors (in words)” value in test [2] is “strongest affinity (lowest Ki)”.
Take `Clc1nccnc1N1CCNCC1` [Compound 10]: the Ki in test [1] was determined as 26000 nM; in test [2] (setting [11]), 160 nM.
On to `Fc1cccnc1N1CCNCC1` [Compound 1, 1-(3-fluoro-2-pyridinyl)piperazine], for which, in [1], the Ki turned out to be 2300 nM and the “affinity for the α1-adrenergic receptors (in words)” value is “weakest affinity (highest Ki)”. In addition, in test [3], the “selectivity or ratio” value is “greatest selectivity”. In addition, in [2], the Ki came to 8.3 nM and the “affinity for the α2-adrenergic receptors (in words)” value is reported as “strongest affinity (lowest Ki)”.
For `CN1CCN2c3ccccc3Cc3ccccc3C2C1` (centres unmarked) [Mianserin], the “in vivo norepinephrine reuptake inhibiting properties” value in [4] is listed as “minimal in vivo norepinephrine reuptake inhibiting properties”. For the same molecule, the α2-adrenergic receptor blockade entry in [5] is given as “blocks α2 -adrenergic receptors”. Moreover, the “selectivity for α1- or α2-adrenergic receptors” value in test [6] is “fails to exhibit any important selectivity for α1 - or α2 -adrenergic receptors”. Also, the clinical antidepressant effectiveness entry in test [7] was “clinically effective antidepressant”.
`Clc1cccc(N2CCNCC2)n1` [Compound 6]: the values for the Ki in test [1] and in test [2] (setting [11]) were 500 nM and 18 nM, respectively.
Taken in the same sequence, the figures for `c1ccc(N2CCNCC2)nc1` [Compound 7] were 2400 nM and 37 nM.
On to `COC(=O)[C@@H]1[C@H]2C[C@H]3c4[nH]c5ccccc5c4CCN3C[C@@H]2CC[C@@H]1O` [yohimbine], for which, in test [8], the “effect on sedation produced by clonidine” value is recorded as “antagonizes the sedation produced by clonidine”. The “effect on clonidine-induced sedation” value in test [9] is reported as “reduce clonidine-induced sedation in man”. In [10], the “effect on locomotor depressant effects of methyldopa” value is “antagonizes”.
With `Clc1cncc(N2CCNCC2)n1` [Compound 9], the Ki was 2400 nM in test [1] and 127 nM in [2].
For `CN1CCN(c2ncccc2Br)CC1` [Compound 5], the inhibition constant (Ki) in [1] is 160 nM; in test [2] (setting [11]), 2.9 nM.
For the molecule `Clc1cccnc1N1CCNCC1` [Compound 2, 1-(3-chloro-2-pyridinyl)piperazine], in test [1], the Ki was found to be 1800 nM and the “affinity for the α1-adrenergic receptors (in words)” value is reported as “weakest affinity (highest Ki)”. In addition, the “selectivity or ratio” value in [3] is reported as “greatest selectivity”. The Ki in test [2] (setting [11]) was found to be 7.9 nM. The “affinity for the α2-adrenergic receptors (in words)” value in test [2] is on record as “strongest affinity (lowest Ki)”.
For the molecule `Clc1ccc(N2CCNCC2)nc1` [Compound 8], the Ki in [2] was found to be 1000 nM.
